According to patent US6462045B1, “Method of treating pulmonary hypertension” (Orion Corporation, priority 1998, dated 2002):

Legend:
[1] = tested on: patient with pulmonary hypertension; test: Experiment 2: levosimendan infusion for 5.5 hrs in a patient with pulmonary hypertension, mean pulmonary artery pressure; type: in vivo, human
Procedure: Levosimendan was administered by infusion (0.1-0.4 μg/kg/min) to a patient with pulmonary hypertension in amounts of 0.1, 0.2 and 0.4 μg/kg/min for 5.5 hrs. At 0.25 h the infusion rate was 0.1 μg/kg/min, at 2.00 h the infusion rate was increased to 0.2 μg/kg/min and at 4.5 h the infusion rate was increased to 0.4 μg/kg/min. The change in the mean pulmonary artery pressure (MPAP) was determined.
Table 1. The change of mean pulmonary artery pressure (NPAP) during levosimendan infusion. 0.25 h infusion rate 0.1 μg/kg/min, 2.00 h infusion rate 0.2 μg/kg/min, 4.5 h infusion rate 0.4 μg/kg/min.

patients = test: Experiment 1: levosimendan infusion for 24 hrs in 95 patients, change in mean pulmonary artery pressure; type: in vivo, human; conditions: infusion 0.05, 0.1, 0.2, 0.4 and 0.6 μg/kg/min for 24 hrs, FIG. 1
Procedure: Levosimendan (LS) was administered by infusion (0.05-0.6 μg /kg/min) to totally 95 patients (n=14-23 per group) in amounts of 0.05, 0.1, 0.2, 0.4 and 0.6 μg/kg/min for 24 hrs. The change in the mean pulmonary artery pressure was determined.
------ is placebo, --O-- is vehicle, --[…]-- is dobutamine,
— is LS 0.05 μg/kg/min, —C— is LS 0.1 μg/kg/min, —□— is LS 0.2 μg/kg/min,
—⋄— is LS 0.4 μg/kg/min, —Δ— is LS 0.6 μg/kg/min

In the case of CC1CC(=O)NN=C1c1ccc(NN=C(C#N)C#N)cc1 (single isomer, unassigned; (-)) [levosimendan, (−)-[[4-(1,4,5,6-tetrahydro-4-methyl-6-oxo-3-pyridazinyl)phenyl]hydrazono]propanedinitrile], the “change in the mean pulmonary artery pressure (MPAP)” value ([1]; infusion 0.1, 0.2 and 0.4 μg/kg/min for 5.5 hrs, one patient with pulmonary hypertension) is reported as “able to significantly lower pulmonary artery pressure”, the MPAP ([1]; time 0 h (before the 0.1 μg/kg/min infusion rate at 0.25 h)) is reported as 41 mmHg and the MPAP ([1]; time 0.75 h, infusion rate 0.1 μg/kg/min) is reported as 42 mmHg. The MPAP ([1]; time 1.25 h, infusion rate 0.1 μg/kg/min) was 42 mmHg, the MPAP ([1]; time 1.75 h, infusion rate 0.1 μg/kg/min) was 39 mmHg and the MPAP ([1]; time 2.50 h, infusion rate 0.2 μg/kg/min) was 34 mmHg. For the same compound, the MPAP ([1]; time 3.00 h, infusion rate 0.2 μg/kg/min) was 35 mmHg, the MPAP ([1]; time 3.50 h, infusion rate 0.2 μg/kg/min) was 35 mmHg and the MPAP ([1]; time 4.00 h, infusion rate 0.2 μg/kg/min) was 32 mmHg. The MPAP ([1]; time 5.00 h, infusion rate 0.4 μg/kg/min) was 27 mmHg, the MPAP ([1]; time 5.50 h, infusion rate 0.4 μg/kg/min) was 29 mmHg and the “change in the mean pulmonary artery pressure” value (patients) was “able to significantly lower pulmonary artery pressure”.
